Reference: PubChem BioAssay (NCI)
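All cell lines were grown in 96-well plates and treated with compound for 48 hours. At the GI50, growth is halved. At the TGI there is no net growth.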

Legend:
Experiment in all cases: NCI-60 cell line screen, 48 h
HT29 colon = system: HT29 colon
M14 melanoma = system: M14 melanoma
NCI-H226 lung = system: NCI-H226 lung
OVCAR-3 ovarian = system: OVCAR-3 ovarian
OVCAR-4 ovarian = system: OVCAR-4 ovarian
OVCAR-8 ovarian = system: OVCAR-8 ovarian
SNB-19 CNS = system: SNB-19 CNS
TK-10 renal = system: TK-10 renal
U251 CNS = system: U251 CNS
HOP-92 NSCLC = system: HOP-92 NSCLC

Compound | TGI (HT29 colon) [µM] | TGI (M14 melanoma) [µM] | TGI (NCI-H226 lung) [µM] | TGI (OVCAR-3 ovarian) [µM] | TGI (OVCAR-4 ovarian) [µM] | TGI (OVCAR-8 ovarian) [µM] | TGI (SNB-19 CNS) [µM] | TGI (TK-10 renal) [µM] | TGI (U251 CNS) [µM] | GI50 (HOP-92 NSCLC) [µM] | TGI (HOP-92 NSCLC) [µM] | GI50 (HT29 colon) [µM] | GI50 (M14 melanoma) [µM] | GI50 (NCI-H226 lung) [µM] | GI50 (OVCAR-3 ovarian) [µM] | GI50 (OVCAR-4 ovarian) [µM] | GI50 (OVCAR-8 ovarian) [µM] | GI50 (SNB-19 CNS) [µM] | GI50 (TK-10 renal) [µM] | GI50 (U251 CNS) [µM]
O=C(NCCCCNc1cccccc1=O)OCc1ccccc1 | > 100 | > 100 | > 100 | > 100 | > 100 | > 100 | > 100 | > 100 | > 100 | – | – | – | – | – | – | – | – | – | – | –
C=C(CN1C(=O)CN(C)C1=O)c1ccc(C(=O)Nc2ccccc2N)cc1 | 41.5 | > 100 | > 100 | > 100 | 35.8 | > 100 | > 100 | 31.5 | – | 26.5 | > 100 | 10.9 | 29.8 | 23.6 | 24.8 | 4.65 | 6.78 | 38.5 | 3.44 | –
CCOC(=O)/C(C=Nc1ccc(-c2nc3ccccc3[nH]2)cc1)=C(/C)O | – | 32 | – | 31.7 | – | 17.7 | > 50 | > 50 | 15.6 | 19.4 | > 50 | – | 12.7 | – | 12.7 | – | 8.78 | 32.7 | 25.4 | 8.74
NC(=O)C(=O)N/N=C1\C(=O)N(c2ccc(Cl)cc2Cl)C(=O)C1C(=O)Nc1ccc(Cl)cc1Cl (stereo unspecified) | > 100 | > 100 | > 100 | > 100 | – | > 100 | > 100 | > 100 | > 100 | – | > 100 | – | – | – | – | – | – | – | – | –
Cc1cc(CC(=O)NCCO)n(CCO)c(=O)c1 | > 100 | > 100 | – | > 100 | > 100 | > 100 | > 100 | > 100 | > 100 | – | > 100 | – | – | – | – | – | – | – | – | –
N.N.N.N.N.NC(=O)c1nn[n-]n1.[Cl-].[Co+3] | > 100 | > 100 | – | > 100 | > 100 | > 100 | > 100 | > 100 | > 100 | > 100 | > 100 | > 100 | > 100 | – | > 100 | > 100 | > 100 | > 100 | > 100 | > 100
NS(=O)(=O)c1ccc(-n2nc(-c3ccc(Cl)cc3)cc2-c2cc(O)ccc2O)cc1 | – | 17.4 | 24.5 | 13.7 | – | 58.6 | – | 26.1 | – | 16 | 38.9 | – | 5.82 | 10.1 | 4.34 | – | 13.3 | – | 10.9 | –
O=[N+]([O-])c1ccc(C[P+](c2ccccc2)(c2ccccc2)c2ccccc2)cc1 | > 100 | > 100 | > 100 | > 100 | – | > 100 | > 100 | > 100 | > 100 | – | – | – | – | – | – | – | – | – | – | –
CC1(C)C2CCC13C(=O)C1OC3(C2)C2C(=O)c3cc4ccccc4cc3C(=O)C12 (stereo unspecified) | > 100 | > 100 | 95.2 | – | – | > 100 | 46.4 | 44.5 | 34.4 | 4.19 | 27.5 | 11.3 | 10.7 | 24.9 | – | – | 33.8 | 5.57 | 12.9 | 15.1
O=C1N(C2CCCCC2)CC12CCCCC2 | – | > 100 | > 100 | – | > 100 | > 100 | > 100 | > 100 | > 100 | – | > 100 | – | – | – | – | – | – | – | – | –
CC1=C(c2ccccc2)C(c2ccccc2)=C(c2ccccc2)C2(c3ccccc3)C(=O)C(C)CN12 (stereo unspecified) | > 100 | > 100 | 84.8 | > 100 | 50.5 | 59.2 | > 100 | – | > 100 | – | – | – | – | – | – | – | – | – | – | –
CCCCCCCCNc1cc2c3c(c1)CCCN3CCC2 | 11.1 | 13.6 | 16.4 | 5.81 | 12 | 20.3 | 19.4 | 22 | 15.1 | – | – | 0.774 | 2.5 | 2.46 | 1.55 | 1.94 | 1.87 | 3.29 | 5.69 | 0.39
COc1ncnc2c(-c3ccccc3)cn(COCc3ccccc3)c12 | > 100 | 7.07 | 8.12 | 20.1 | 9.5 | 11.7 | > 100 | > 100 | > 100 | – | – | 3.49 | 2.66 | 2.03 | 5.09 | 2.26 | 3.02 | 6.53 | 4.05 | 4.06
O=C(O)CCN(CCCCN(CCC(=O)O)CCC(=O)O)CCC(=O)O | > 100 | > 100 | – | > 100 | > 100 | > 100 | – | > 100 | > 100 | – | > 100 | – | – | – | – | – | – | – | – | –
COc1ccc(/C=C/C(=O)c2cc(OC)c(OC)c(OC)c2)cc1OCc1cn(Cc2ccc(F)cc2)nn1 | 7.3 | > 100 | 7.67 | > 100 | > 100 | 31.5 | > 100 | 8.06 | 19.4 | – | – | 3 | 4.07 | 2.26 | 3.41 | 3.42 | 2.58 | 4.42 | 3 | 2.94
N.N.N.N.[Co+3].[N-]=[N+]=[N-].[N-]=[N+]=[N-].[N-]=[N+]=[N-] | > 100 | > 100 | – | > 100 | > 100 | > 100 | > 100 | > 100 | > 100 | 19 | > 100 | > 100 | > 100 | – | > 100 | > 100 | > 100 | > 100 | > 100 | > 100
Cc1cccc(/C=C/c2c(C(=O)/C=C/c3ccccc3)c(C)nc3ccccc23)c1 | 16.9 | – | 3.82 | 2.81 | – | – | 3.04 | – | 2.85 | 1.48 | 4 | 2.12 | – | 1.73 | 1.46 | – | – | 1.67 | – | 1.47
